This is an account of results in patent US6444617B1, “Fused-heterocycle dicarboxylic acid diamide derivatives or salts thereof, herbicide and usage thereof” (Nihon Nohyaku Co., Ltd., priority 1998, dated 2002).

Holding throughout (type): in vivo
For data set [1], the system named is barnyard grass (Echinochloa crus-galli Beauv.). Nature of the data set: Test Example 1: herbicidal effect on paddy field weeds before emergence. The note with it: Dosage 5 kg/ha. The gist of the method: (§1)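 Seeds of both weeds, still ungerminated, in soil pots held under paddy conditions received a set dose of test solution as soil treatment. After twenty-one days, control relative to untreated pots was calculated and rated on a scoring scale.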

The test system of data set [2] is bulrush (Scirpus juncoides Roxb.). The data set is described as above. The conditions noted are these: Dosage 5 kg/ha. The procedure, abridged:
as §1

Data set [3] has as its system barnyard grass (Echinochloa crus-galli Beauv.). Nature of the data set: Test Example 2: herbicidal effect on paddy field weeds after emergence. The conditions noted are these: Dosage 5 kg/ha; one-leaved stage; 21 days after treatment. The procedure, abridged:
(§2)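 Weeds were sown in 1/10000 are pots of soil flooded to paddy conditions and grown to the one-leaf stage, then the soil was treated with a solution of compound at a predetermined dosage.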

The test system of data set [4] is bulrush (Scirpus juncoides Roxb.). The data set is described as above. The note with it: Dosage 5 kg/ha; one-leaved stage; 21 days after treatment. The gist of the method: as §2
Data set [5] relates to monochoria (Monochoria vaginalis Presl). The description is as above. The conditions noted are these: Dosage 5 kg/ha; one-leaved stage; 21 days after treatment. The gist of the method:
as §2

For data set [6], the system named is barnyard grass (Echinochloa crus-galli Beauv.), Ec. Nature of the data set: Test Example 3: herbicidal effect on upland weeds before emergence. The conditions noted are these: dosage 5 kg/ha. The gist of the method:
(§3)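 Pre-emergence spray of liquid prep, compound at set concentration; read at 14 d post-treatment; weed-kill rate calculated, effect graded.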

Data set [7] relates to bird's eye speedwell (Veronica persica Poir.), Vp. The data set is described as above. The conditions noted are these: dosage 5 kg/ha. The procedure, abridged:
as §3

For data set [8], the system named is cleavers (Galium aparine L.), Ga. The description is as above. The note with it: dosage 5 kg/ha. The procedure, abridged:
as §3

Data set [9] relates to cocklebur (Xanthium strumarium L.), Xs. The data set is described as above. The conditions noted are these: dosage 5 kg/ha. The gist of the method:
as §3

Data set [10] deals with forxtail grass (Alopecurus aequalis var. amurensis Ohwi), Am. Described as above. The note with it: foxtail grass, dosage 5 kg/ha. The procedure, abridged:
as §3

Data set [11] deals with velvetleaf (Abutilon theophtasti L.), At. Described as above. The conditions noted are these: dosage 5 kg/ha. The procedure, abridged: as §3
The test system of another data set is soybean plant (So). In words: Test Example 3: phytotoxicity to upland crop plants, treatment before emergence. The conditions noted are these: dosage 5 kg/ha. The gist of the method: (§4)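 Crop injury to soybean and wheat was judged on a phytotoxicity scale 14 days after a pre-emergence spray of a liquid formulation at a prescribed concentration of compound.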
The next data set deals with wheat (Wh). Described as above. The note with it: dosage 5 kg/ha. The gist of the method:
as §4

Data set [12] deals with barnyard grass (Echinochloa crus-galli Beauv.), Ec. Nature of the data set: Test Example 4: herbicidal effect on upland weeds after emergence. The conditions noted are these: dosage 5 kg/ha; sprayed after emergence; judged 14 days after treatment. The procedure, abridged:
(§5)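 Post-emergence foliar spray at a prescribed concentration, applied once the sown weeds and soybean reached defined leaf stages in soil vats; herbicidal effect and soybean injury scored after 14 days.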

Data set [13] relates to bird's eye speedwell (Veronica persica Poir.), Vp. Described as above. The note with it: dosage 5 kg/ha; sprayed after emergence; judged 14 days after treatment. The gist of the method:
as §5

In data set [14] the test system is cleavers (Galium aparine L.), Ga. The description is as above. The conditions noted are these: dosage 5 kg/ha; sprayed after emergence; judged 14 days after treatment. The procedure, abridged: as §5
Data set [15] has as its system cocklebur (Xanthium strumarium L.), Xs. Described as above. The note with it: dosage 5 kg/ha; sprayed after emergence; judged 14 days after treatment. The gist of the method:
as §5

Data set [16] concerns forxtail grass (Alopecurus aequalis var. amurensis Ohwi), Am. The description is as above. The conditions noted are these: dosage 5 kg/ha; sprayed after emergence; judged 14 days after treatment. The procedure, abridged:
as §5

Data set [17] deals with velvetleaf (Abutilon theophtasti L.), At. The data set is described as above. The note with it: dosage 5 kg/ha; sprayed after emergence; judged 14 days after treatment. The gist of the method: as §5
The next data set deals with soybean plant. Nature of the data set: Test Example 4: phytotoxicity to upland crop plants, treatment after emergence. The conditions noted are these: dosage 5 kg/ha, sprayed after emergence, judged 14 days after treatment. The procedure, abridged:
(§6)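 Weeds, soybean and wheat were sown in soil-filled vats, covered with soil and grown to set leaf stages before a post-emergence spray of an agent containing the compound at a prescribed concentration. Weed-killing rate and crop phytotoxicity were assessed 14 days after treatment.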

In the next data set the test system is wheat. The data set is described as above. The conditions noted are these: dosage 5 kg/ha, sprayed after emergence, judged 14 days after treatment. The procedure, abridged:
as §6

In the case of `CCCNC(=O)c1nc2c(cc1C(=O)Nc1c(CC)ccc(Cl)c1CC)CCCO2` [compound 414], the “Pre-emergence treatment Barnyard grass (herbicidal effect)” value (“Pre-emergence treatment Barnyard grass” for short) in data set [1] is on record as 5 (Weed-killing rate is 100%.). Further, the “Pre-emergence treatment Bulrush (herbicidal effect)” value (from here on “Pre-emergence treatment Bulrush”) in data set [2] is listed as 5 (Weed-killing rate is 100%.). The “Post-emergence treatment Barnyard grass (herbicidal effect)” value (shortened to “Post-emergence treatment Barnyard grass”) in [3] is reported as 5 (Weed-killing rate is 100%.). The “Post-emergence treatment Bulrush (herbicidal effect)” value (“Post-emergence treatment Bulrush” below) in [4] is recorded as 5 (Weed-killing rate is 100%.). Also, the “Post-emergence treatment Monochoria (herbicidal effect)” value (shortened to “Post-emergence treatment Monochoria”) in [5] is on record as 5 (Weed-killing rate is 100%.). The “Herbicidal effect Ec” value in [6] and in data set [12] was 5 (Weed-killing rate is 100%.) in each case. Further, the “Herbicidal effect Vp” value in data set [7] and in data set [13] was 5 (Weed-killing rate is 100%.) throughout. Moreover, the “Herbicidal effect Ga” value in data set [8] and in [14] was 5 (Weed-killing rate is 100%.) each time. The “Herbicidal effect Xs” value in data set [9] and in data set [15] was 5 (Weed-killing rate is 100%.) each time. Besides, the “Herbicidal effect Am” value in data set [10] and in data set [16] was 5 (Weed-killing rate is 100%.) in each case. The “Herbicidal effect At” value in [11] and in [17] was 5 (Weed-killing rate is 100%.) throughout. Further, the “Phytotoxicity So” value in the data set with soybean plant (So) and in the data set with soybean plant was 4 (Crop-killing rate is 90-99%.) each time. Further, the “Phytotoxicity Wh” value in the data set on wheat (Wh) and in the data set with wheat was 5 (Crop-killing rate is 100%.) throughout.

For `CCc1ccc(Cl)c(CC)c1NC(=O)c1cc2c(nc1C(=O)NC1CCCC1)OCCC2` [compound 423], the “Pre-emergence treatment Barnyard grass” value in data set [1] is reported as 5 (Weed-killing rate is 100%.). In data set [2], the “Pre-emergence treatment Bulrush” value is recorded as 5 (Weed-killing rate is 100%.). In [3], the “Post-emergence treatment Barnyard grass” value is given as 5 (Weed-killing rate is 100%.). Besides, the “Post-emergence treatment Bulrush” value in [4] is 5 (Weed-killing rate is 100%.). For the same molecule, in data set [5], the “Post-emergence treatment Monochoria” value is 5 (Weed-killing rate is 100%.). In addition, the “Herbicidal effect Ec” value in [6] and in data set [12] was 5 (Weed-killing rate is 100%.) each time. The “Herbicidal effect Vp” value in [7] and in data set [13] was 5 (Weed-killing rate is 100%.) in each case. For the same molecule, the “Herbicidal effect Ga” value in data set [8] and in [14] was 5 (Weed-killing rate is 100%.) throughout. The “Herbicidal effect Xs” value in [9] and in data set [15] was 5 (Weed-killing rate is 100%.) each time. Further, the “Herbicidal effect Am” value in [10] and in [16] was 5 (Weed-killing rate is 100%.) each time. Moreover, the “Herbicidal effect At” value in data set [11] and in [17] was 5 (Weed-killing rate is 100%.) each time. For the same molecule, the “Phytotoxicity So” value with soybean plant (So) and in the data set on soybean plant was 4 (Crop-killing rate is 90-99%.) throughout. Further, the “Phytotoxicity Wh” value with wheat (Wh) and in the data set with wheat was 5 (Crop-killing rate is 100%.) throughout.

Turning to `Cc1c(Cl)cccc1NC(=O)c1cc2c(nc1C(=O)NCC(C)C)OCCC2` [compound 431], in [1], the “Pre-emergence treatment Barnyard grass” value is reported as 5 (Weed-killing rate is 100%.). The “Pre-emergence treatment Bulrush” value in data set [2] is 5 (Weed-killing rate is 100%.). Besides, the “Post-emergence treatment Barnyard grass” value in [3] is 5 (Weed-killing rate is 100%.). Also, the “Post-emergence treatment Bulrush” value in [4] was 5 (Weed-killing rate is 100%.). The “Post-emergence treatment Monochoria” value in [5] was 5 (Weed-killing rate is 100%.). Moreover, the “Herbicidal effect Ec” value in [6] was 5 (Weed-killing rate is 100%.); in data set [12], 4 (Weed-killing rate is 90-99%.). Also, the “Herbicidal effect Vp” value in data set [7] and in data set [13] was 5 (Weed-killing rate is 100%.) throughout. In addition, the “Herbicidal effect Ga” value in data set [8] and in data set [14] was 4 (Weed-killing rate is 90-99%.) each time. For the same molecule, the “Herbicidal effect Xs” value in data set [9] and in data set [15] was 4 (Weed-killing rate is 90-99%.) each time. Also, the “Herbicidal effect Am” value in [10] and in data set [16] was 4 (Weed-killing rate is 90-99%.) throughout. Besides, the “Herbicidal effect At” value in data set [11] and in data set [17] was 5 (Weed-killing rate is 100%.) each time. For the same molecule, the “Phytotoxicity So” value in the data set on soybean plant (So) and with soybean plant was 3 (Crop-killing rate is 70-89%.) throughout. In addition, the figures for the “Phytotoxicity Wh” value with wheat (Wh) and in the data set with wheat were 3 (Crop-killing rate is 70-89%.) and 4 (Crop-killing rate is 90-99%.), respectively.

Consider `CCCNC(=O)c1nc2c(cc1C(=O)Nc1c(CC)ccc(Cl)c1CC)CCOC2` [compound 438], for which the “Pre-emergence treatment Barnyard grass” value in data set [1] is reported as 5 (Weed-killing rate is 100%.). In addition, in data set [2], the “Pre-emergence treatment Bulrush” value is reported as 5 (Weed-killing rate is 100%.). Further, the “Post-emergence treatment Barnyard grass” value in [3] is listed as 5 (Weed-killing rate is 100%.). In addition, in data set [4], the “Post-emergence treatment Bulrush” value was 5 (Weed-killing rate is 100%.). The “Post-emergence treatment Monochoria” value in data set [5] is 5 (Weed-killing rate is 100%.). Moreover, the “Herbicidal effect Ec” value in data set [6] and in [12] was 5 (Weed-killing rate is 100%.) throughout. In addition, the “Herbicidal effect Vp” value in data set [7] and in data set [13] was 5 (Weed-killing rate is 100%.) each time. Further, the “Herbicidal effect Ga” value in data set [8] and in data set [14] was 5 (Weed-killing rate is 100%.) throughout. Besides, the “Herbicidal effect Xs” value in data set [9] and in data set [15] was 5 (Weed-killing rate is 100%.) in each case. Moreover, the “Herbicidal effect Am” value in data set [10] and in data set [16] was 5 (Weed-killing rate is 100%.) in each case. The “Herbicidal effect At” value in data set [11] and in data set [17] was 5 (Weed-killing rate is 100%.) in each case. In addition, the results for the “Phytotoxicity So” value in the data set on soybean plant (So) and in the data set with soybean plant were 5 (Crop-killing rate is 100%.) and 4 (Crop-killing rate is 90-99%.), respectively. Further, the “Phytotoxicity Wh” value in the data set on wheat (Wh) and in the data set with wheat was 5 (Crop-killing rate is 100%.) in each case.
